Values joined by “and” are separate entries in the source; they are usually repeats but may differ in a detail not shown here. Equal entries are not always repeated. Where two headings read alike, the source gives them in different places. *1 amine or outer side, *2 acyl side, *3 side chain or, on linkers, in order; H or OH if unused. Where a SMILES comes first, the peptide text is derived from it. Bridges are numbered along the chain shown (N, C = ends). [ ]: non-standard residue; d: D form. Ser(Bzl) = O-benzyl-L-serine, O=C([C@H](COCc1ccccc1)N[*:1])[*:2]; Orn = NCCC[C@H](N)C(=O)O
Tests used:
hMC4-R [1] = target: T1, hMC4-R (Homo sapiens, UniProt P32245); test: Competitive binding assay using Eu-NDP-α-MSH, MC4-R; details: for selectivity for MC4-R (binding against MC1-R, MC3-R and MC4-R): in words
T1 construct: expressed in transfected cells; host or cells: HEK-293 (membrane homogenates)
Description: Competitive inhibition binding assays were performed using membrane homogenates prepared from HEK-293 cells that express recombinant hMC1-R, hMC3-R, hMC4-R, or hMC5-R. In the examples that follow, all MC1-R, MC3-R, MC4-R and MC5-R values are for human recombinant receptors. Assays were performed in 96 well GF/B Millipore multiscreen filtration plates (MAFB NOB10) pre-coated with 0.5% bovine serum albumin (Fraction V). Membrane homogenates were incubated with 0.1 nM [1^125]-NDP-α-MSH (Perkin Elmer) and increasing concentrations of test peptides of the present invention in buffer containing 25 mM HEPES buffer (pH 7.5) with 100 mM NaCl, 2 mM CaCl2, 2 mM MgCl2, 0.3 mM 1,10-phenanthroline, and 0.1% bovine serum albumin. After incubation for 90 minutes at 37° C., the assay mixture was filtered and the membranes washed with 1 mL of cold 1×PBS wash buffer per well. 35 μL of scintillation cocktail was added to each well and the plates counted on a Microbeta counter for 1 minute per well. Non-specific binding was measured by inhibition of binding of [I^125]-NDP-α-MSH in the presence of 1 μM NDP-α-MSH. Maximal specific binding (100%) was defined as the difference in radioactivity (cpm) bound to cell membranes in the absence and presence of 1 μM NDP-α-MSH. Radioactivity (cpm) obtained in the presence of test compounds was normalized with respect to 100% specific binding to determine the percent inhibition of [I^125]-NDP-α-MSH binding. Each assay was conducted in duplicate and actual mean values are described, with results less than 0% reported as 0%. Ki values for test peptides of the present invention were determined using Graph-Pad Prism® curve-fitting software.
(§1) Alternatively, a competitive inhibition binding assay was performed employing Eu-NDP-α-MSH (PerkinElmer Life Sciences catalog No. AD0225) with determination by time-resolved fluorometry (TRF) of the lanthanide chelate. In comparison studies with [I^125]-NDP-α-MSH, the same values, within experimental error ranges, were obtained for percent inhibition and Ki. Typically competition experiments to determine Ki values were conducted by incubating membrane homogenates prepared from HEK-293 cells that express recombinant hMC4-R with 9 different concentrations of test compounds of interest and 1 nM of Eu-NDP-α-MSH in a solution containing 25 mM HEPES buffer with 100 mM NaCl, 2 mM CaCl2, 2 mM MgCl2, 0.1% BSA, and 0.3 mM 1,10-phenanthroline. After incubation for 90 minutes at 37° C., the reaction was stopped by filtration over AcroWell 96-well filter plates (Pall Life Sciences). The filter plates were washed 4 times with 200 μL of ice-cold phosphate-buffered saline. DELFIA Enhancement solution (PerkinElmer Life Sciences) was added to each well. The plates were incubated on a shaker for 15 minutes and read at 340 nm excitation and 615 nm emission wavelengths. Each assay was conducted in duplicate and mean values were utilized. Ki values were determined by curve-fitting with Graph-Pad Prism® software using a one-site fixed-slope competition binding model.

hMC4-R [2] = target: T1, hMC4-R; test: Assay for agonist activity (cAMP accumulation in HEK-293 cells expressing hMC4-R); format: cell-based
Description: Accumulation of intracellular cAMP was examined as a measure of the ability of the peptides of the present invention to elicit a functional response in HEK-293 cells that express MC4-R. Confluent HEK-293 cells that express recombinant hMC4-R were detached from culture plates by incubation in enzyme-free cell dissociation buffer. Dispersed cells were suspended in Earle's Balanced Salt Solution containing 10 mM HEPES (pH 7.5), 1 mM MgCl2, 1 mM glutamine, 0.5% albumin and 0.3 mM 3-isobutyl-1-methyl-xanthine (IBMX), a phosphodiesterase inhibitor. The cells were plated in 96-well plates at a density of 0.5×10^5 cells per well and pre-incubated for 10 minutes. Cells were exposed for 15 minutes at 37° C. to peptides of the present invention dissolved in DMSO (final DMSO concentration of 1%) at a concentration range of 0.05-5000 nM in a total assay volume of 200 μL. NDP-α-MSH was used as the reference agonist. cAMP levels were determined by an HTRF® cAMP cell-based assay system from Cisbio Bioassays utilizing cryptate-labeled anti-cAMP and d2-labeled cAMP, with plates read on a Perkin-Elmer Victor plate reader at […]. Data analysis was performed by nonlinear regression analysis with Graph-Pad Prism® software. The maximum efficacies of the test peptides of the present invention were compared to that achieved by the reference melanocortin agonist NDP-α-MSH.

[3] = Food intake and body weight change in rats; format: in vivo, rat; details: for food intake / rate of change in body weight: rat feeding studies, overall finding in words; for decrease in food consumption compared to control: rats
Description: Change in food intake and body weight was evaluated for selected peptides administered by intravenous (IV) or subcutaneous injection routes. Male Sprague-Dawley rats were obtained from Hilltop Lab Animals, Inc. (Scottsdale, Pa.) or other vendors. Animals were individually housed in conventional polystyrene hanging cages and maintained on a controlled 12 hour on/off light cycle. Water and pelleted food was provided ad libitum. The rats were dosed IV with vehicle or selected peptides (0.3 to 1.0 mg/kg), or dosed subcutaneously with vehicle or selected peptides (doses up to 30 mg/kg). The changes in body weight and food intake for the 24 hour period after dosing was determined. The changes in body weight and food intake for the 48 hour and 72 hour periods after dosing can also be measured to determine reversal of changes in body weight and food intake effects back to baseline levels.

[4] = Induction of penile erection in male rats; format: in vivo, rat; details: for increase in observed spontaneous erections: in words
Description: The ability of peptides of the present invention to induce penile erection (PE) in male rats were evaluated with selected peptides. Male Sprague-Dawley rats weighing 250-300 g were kept on a 12 hour on/off light cycle with food and water ad libitum. All behavioral studies were performed between 9 a.m. and 4 p.m. Groups of 6-8 rats were administered peptides at a variety of doses via an IV route. Immediately after treatment, rats were placed into individual polystyrene cages (27 cm long, 16 cm wide, and 25 cm high) for behavioral observation, typically by remote video monitoring. Rats are observed for one hour, and the number of yawns, grooming bouts and PEs are recorded in 10-minute bins.

[5] = target: T2, human melanocortin-4 receptor (recombinant hMC4-R) (human, UniProt P32245 1-332); test: cell-based or functional assay
[6] = target: T3, human melanocortin-3 receptor (recombinant hMC3-R) (human, UniProt P41968 1-323); test: competitive binding vs labelled NDP-α-MSH, hMC3-R membranes
T3 construct: whole, on cells; Membrane homogenates of HEK-293 cells expressing the recombinant receptor

[7] = target: T2, human melanocortin-4 receptor …; test: competitive binding vs Eu-NDP-α-MSH, TRF, hMC4-R HEK-293 membranes
Description: as §1, with “[I¹²⁵]-NDP-α-MSH,” for “[I^125]-NDP-α-MSH,”, “Typically competition experiments to determine Ki values were conducted by incubating membrane homogenates prepared from HEK-293 cells that express recombinant hMC4-R with 9 different concentrations of test compounds of interest and 1 nM of Eu-NDP-α-MSH in a solution containing 25 mM HEPES buffer with 100 mM NaCl, 2 mM CaCl2, 2 mM MgCl2, 0.1% BSA, and 0.3 mM 1,10-phenanthroline.” left out
Peptides of the following structures were synthesized by the general methods described above, and except where indicated MC4-R Ki values for each peptide were determined in competitive binding assays using Eu-NDP-α-MSH as described in 7.2 above.

[8] = target: human melanocortin-4 receptor (recombinant hMC4-R) (human) (UniProt P32245); test: cell-based or functional assay
[9] = competitive studies using Eu-NDP-α-MSH / NDP-α-MSH, average of several studies, read-out: Ki value at MC4-R
[10] = competitive binding using Eu-NDP-α-MSH, human recombinant receptor, read-out: MC4-R Ki

T1 sequence (P32245 whole entry): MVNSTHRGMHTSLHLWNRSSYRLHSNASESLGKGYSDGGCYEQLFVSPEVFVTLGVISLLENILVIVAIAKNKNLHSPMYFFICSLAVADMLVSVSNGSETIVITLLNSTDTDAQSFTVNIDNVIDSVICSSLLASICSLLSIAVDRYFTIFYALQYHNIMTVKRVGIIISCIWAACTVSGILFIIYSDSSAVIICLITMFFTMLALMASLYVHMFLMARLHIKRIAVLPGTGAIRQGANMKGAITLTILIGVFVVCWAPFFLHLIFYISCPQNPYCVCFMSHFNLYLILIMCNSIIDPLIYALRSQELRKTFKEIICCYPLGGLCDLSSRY
T2 sequence (P32245 whole entry): as above
Chain of human melanocortin-4 receptor (recombinant hMC4-R) (human) (P32245 whole entry): as above
T3 sequence (P41968 whole entry): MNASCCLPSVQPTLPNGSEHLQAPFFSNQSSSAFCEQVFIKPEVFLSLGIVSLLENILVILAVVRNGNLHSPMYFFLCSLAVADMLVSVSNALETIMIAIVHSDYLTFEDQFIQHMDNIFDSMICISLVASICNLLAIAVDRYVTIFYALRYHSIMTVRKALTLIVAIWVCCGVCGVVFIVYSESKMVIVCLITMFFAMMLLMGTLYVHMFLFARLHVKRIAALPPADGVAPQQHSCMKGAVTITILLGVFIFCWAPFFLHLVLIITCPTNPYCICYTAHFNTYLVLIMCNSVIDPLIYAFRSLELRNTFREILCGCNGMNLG

## CC(=O)N[C@@H](CCCNC(=N)N)C(=O)N[C@H]1CC(=O)NCCCC[C@@H](C(=O)O)NC(=O)[C@H](Cc2c[nH]c3ccccc23)NC(=O)[C@H](CCCNC(=N)N)NC(=O)[C@@H](Cc2ccccc2)NC(=O)[C@H](COCc2ccccc2)NC1=O [Compound 1, Ac-Arg-cyclo(Asp-Ser(Bzl)-D-Phe-Arg-Trp-Lys)-OH]
hMC4-R [1]; [9]
  Ki: 12 nM
hMC4-R [1]
  selectivity for MC4-R (binding against MC1-R, MC3-R and MC4-R): highly selective for MC4-R
hMC4-R [2]; HEK293, NDP-α-MSH is 100%, read-out: intrinsic activity at MC4-R
  Emax: 38%
hMC4-R [2]; NDP-α-MSH is 100%
  intrinsic activity at MC4-R: 47%
hMC4-R [2]; functional studies at MC4-R, average of several studies
  EC50: 2 nM
hMC4-R [2]; in words
  functional classification at MC4-R: partial agonist
[3]
  food intake: reduce food intake
  rate of change in body weight: decrease the rate of change in body weight
[3]; 0.3 mg/kg, 0-4 hour period
  decrease in food consumption compared to control: statistically significant
[3]; 1 mg/kg, 0-2 hour period
  decrease in food consumption compared to control: statistically significant
[3]; 1 mg/kg, 0-4 hour period
  decrease in food consumption compared to control: statistically significant
[3]; 1 mg/kg, 0-20 hour period
  decrease in food consumption compared to control: statistically significant
[4]; IV, 1 mg/kg
  average spontaneous erections per rat in one hour: 1.5±0.378 spontaneous erections per rat in one hour
[4]; IV
  increase in observed spontaneous erections: not found to result in a statistically significant increase

## CC(=O)N[C@@H](CCCNC(=N)N)C(=O)N[C@H]1CC(=O)NCCCC[C@@H](C(N)=O)NC(=O)[C@H](Cc2c[nH]c3ccccc23)NC(=O)[C@H](CCCNC(=N)N)NC(=O)[C@@H](Cc2ccccc2)NC(=O)[C@@H]2CCCN2C1=O [Compound 3, Ac-Arg-cyclo(Asp-Pro-D-Phe-Arg-Trp-Lys)-NH2]
hMC4-R [1]; [9]
  Ki: 11 nM
hMC4-R [1]
  selectivity for MC4-R (binding against MC1-R, MC3-R and MC4-R): highly selective for MC4-R
[3]
  food intake: reduce food intake
  rate of change in body weight: decrease the rate of change in body weight
[3]; 0.3 mg/kg, 0-2 hour period
  decrease in food consumption compared to control: statistically significant
[3]; 0.3 mg/kg, 0-4 hour period
  decrease in food consumption compared to control: statistically significant
[3]; 0.3 mg/kg, 0-20 hour period
  decrease in food consumption compared to control: statistically significant
[3]; 1 mg/kg, 0-2 hour period
  decrease in food consumption compared to control: statistically significant
[3]; 1 mg/kg, 0-4 hour period
  decrease in food consumption compared to control: statistically significant
[3]; 1 mg/kg, 0-20 hour period
  decrease in food consumption compared to control: statistically significant
[4]; IV, 0.3 mg/kg
  average spontaneous erections per rat in one hour: 1.143±0.553 spontaneous erections per rat in one hour
[4]; IV, 1 mg/kg
  average spontaneous erections per rat in one hour: 1.286±0.421 spontaneous erections per rat in one hour
[4]; IV
  increase in observed spontaneous erections: not found to result in a statistically significant increase

## CC(=O)N[C@@H](CCCNC(=N)N)C(=O)N[C@H]1CCCNC(=O)CC[C@@H](C(N)=O)NC(=O)[C@H](Cc2c[nH]c3ccccc23)NC(=O)[C@H](CCCNC(=N)N)NC(=O)[C@@H](Cc2ccccc2)NC(=O)[C@@H]2CCCN2C1=O [Compound 5, Ac-Arg-cyclo(Orn-Pro-D-Phe-Arg-Trp-Glu)-NH2] (Ac-R[Orn]P[dF]RWE-NH2; lactam 2-7)
hMC4-R [1]; [10]
  Ki: 13 nM

## CC(=O)N[C@@H](CCCNC(=N)N)C(=O)N[C@H]1CCC(=O)NCCC[C@@H](C(=O)O)NC(=O)[C@H](Cc2c[nH]c3ccccc23)NC(=O)[C@H](CCCNC(=N)N)NC(=O)[C@@H](Cc2ccccc2)NC(=O)[C@H](COCc2ccccc2)NC1=O [Compound 6, Ac-Arg-cyclo(Glu-Ser(Bzl)-D-Phe-Arg-Trp-Orn)-OH]
hMC4-R [1]; [10]
  Ki: 13 nM

## CCCC[C@H](NC(C)=O)C(=O)N[C@H]1CC(=O)NCCCC[C@@H](C(=O)O)NC(=O)[C@H](Cc2c[nH]c3ccccc23)NC(=O)[C@H](CCCN=C(N)N)NC(=O)[C@@H](Cc2ccccc2)NC(=O)[C@H](Cc2cnc[nH]2)NC1=O [bremelanotide, Ac-Nle-cyclo(Asp-His-D-Phe-Arg-Trp-Lys)-OH, reference compound]
[4]; IV, 1 mg/kg
  average spontaneous erections per rat in one hour: 4.875±0.990 spontaneous erections per rat in one hour and 3.167±0.79 spontaneous erections per rat in one hour
[4]; positive control, dose not stated in this study
  average spontaneous erections per rat in one hour: 3.714±0.680 spontaneous erections per rat in one hour

B1: cyclic peptide of Compound 3, Ac-Arg-cyclo(Asp-Pro-D-Phe-Arg-Trp-Lys)-NH2 (peptide)
peptide: RDPXRWK
modifications: N-terminal acetyl (Ac); D-Phe at position 4; side-chain lactam cyclo(Asp2-Lys7); C-terminal amide (-NH2)
notes: Synthetic cyclic heptapeptide; prepared as TFA salt; also called No. 3
[5]
  EC50 (cAMP accumulation, HEK-293 cells expressing hMC4-R): 10 nM
[6]
  Ki: 125 nM

B2: Ac-Arg-cyclo(Asp-Pro-D-Phe-Arg-trp-Lys)-OH (peptide)
peptide: RDPXRWK
modifications: not fully specified; N-terminal acetyl (Ac); D-Phe at position 4; side-chain lactam cyclo(Asp2-Lys7); C-terminal -OH; position 6 printed 'trp' in the table and in claim 5 but 'Trp' in the 2nd table
notes: Synthetic cyclic heptapeptide; also called Compound 8; No. 8
[7]
  Ki: 116 nM

## Ac-R[Orn][Ser(Bzl)][dF]RWE-OH (lactam 2-7; also: TFA salt) [cyclic peptide of Compound 7, Ac-Arg-cyclo(Orn-Ser(Bzl)-D-Phe-Arg-Trp-Glu)-OH]
[8]
  EC50 (cAMP accumulation, HEK-293 cells expressing hMC4-R): 2 nM
  intrinsic activity (cAMP accumulation, HEK-293 cells expressing hMC4-R): 47%

Source: patent publication US20090305960A1, “Melanocortin Receptor-Specific Peptides for Treatment of Obesity / 669” (Palatin Technologies, Inc, priority 2008, published 2009)
